Entries after “also recorded” stand apart in the source; their conditions may differ. Where two headings read alike, the source gives them in different places.
What was measured:
[1] = biological target: T1, NpN4OMT1 (Narcissus aff. pseudonarcissus MK-2014, UniProt A0A077EWA5); type: biochemical; details: for enzymatic activity upon addition of divalent cation: cation dependence test, 5 min assays, 4 μM norbelladine, 37° C.
T1 construct: made in house; host or cells: E. coli BL21(DE3) Codon Plus RIL
Procedure: Enzyme assays for initial testing of NpN4OMT1 contained 10 μg of pure protein with 200 μM AdoMet, 100 μM norbelladine and 30 mM potassium phosphate buffer pH 8.0 in 100 μl. The assays were incubated for 2 hr at 30° C. The vector control was an E. coli extract purified with TALON in the same way as the methyltransferase protein. For the vector control assay, an equal volume of the pure vector control extract was substituted for the NpN40MT1 protein in the enzyme assay. These assays were quenched by adjusting the pH to 9.5 with two volumes of sodium bicarbonate and extracted with two volumes ethyl acetate two times. After drying, the extracts were re-suspended in the initial mobile phase of the HPLC program. The HPLC separation of the assays was performed using a phenomenex Luna C8(2) 5 m 250×4.6 mm column with solvent A (0.1% formic acid in H2O) and solvent B (acetonitrile). The program started with 10% solvent B and a flow rate of 0.8 ml/min, a linear gradient began at 2 min to 30% at 15 min, 90% at 15.1 min, 90% at 20 min, 10% at 21 min and 10% at 28 min. Injection volume was 20 μl using a Waters auto-sampler. Waters UV detector was set to 277 nm.
After optimization of the NpN4OMT assay, the buffer was changed to […] glycine at pH 8.8, with 5 mM of MgCl2 added and the temperature was increased to 37° C. in 100 μl total reaction volume. When performing kinetic assays, the E. coli enzyme Pfs was added to break down SAH and prevent product inhibition. Papaverine was used as an internal standard.
With the same solvent system as for screening enzyme assays, the HPLC program started with 20% B and a flow rate of 0.8 ml/min, a linear gradient began at 2 min to 25.4% B at 7 min, 90% at 7.2 min, 90% at 9 min, 20% at 9.1 min and 20% at 14 min. A 4000 QTRAP mass spectrometer coupled to the same LC column and time program as used in HPLC was used to collect all compound mass and fragmentation data.
For NpN4OMT norbelladine kinetics an MRM program in positive ion mode was used to monitor the following fragments 260.00 [M+H]^+/138.00 [M−C8H9O]^+• m/z, 260.00 [M+H]^+/121.00 [M−C7H8NO2]^+• m/z, 274.00 [M+H]^+/137.00 [M+H—C8H9O2]^+ m/z, 274.00 [M+H]^+/122.00 [M+H—C8H10NO2]^+ m/z. The fragments with 260.00 [M+H]^+ m/z and 274.00 [M+H]^+ m/z molecular ions were replaced when looking at N-methylnorbelladine for 274.00 [M+H]^+/152.10 [M−C8H9O]^+• m/z, 274.00 [M+H]^+/121.00 [M−C9H12NO2]^+• m/z, 288.00 [M+H]^+/150.10 [M−C8H9O2]^+• m/z and 288.20 [M+H]^+/137.00 [M−C9H12NO]^+• m/z. Papaverine internal standard was monitored with the following fragments 340.40[M+H]^+/324.20 [M−CH3]^+• m/z and 340.40 [M+H]^+/202.10 [M−C8H9O2]^+• m/z. When conducting dopamine kinetics, galanthamine was used as the internal standard and samples were not ethyl acetate extracted prior to LC/MS/MS analysis. To remove protein, two volumes of acetonitrile were added followed by 1 hr at −20° C. and 10 min centrifugation at 16,100×g, 4° C. The supernatant was dried under vacuum and re-suspended in the starting mobile phase before analysis. The HPLC time program was changed to start at 5% solvent B with solution going to waste until 3.9 min, at 5 min start linear gradient to 25% B at […], 90% B at 9.5 min, 90% B at 11 min, 5% B at 11.1 min and 5% B at 16 min. Ions monitored in the MRM were 168.00 [M+H]^+/151.00 [M+H-OH]^+ m/z and 168.00 [M+H]^+/119.00 [M−OH—OCH3]^+• m/z. AdoMet steady state kinetic parameters were determined with norbelladine as the saturated substrate. Product was quantitated using HPLC with the 28 min program used for screening enzyme assays. Product for assays on the additional NpN4OMT variants was detected with this same 28 min program on HPLC.
When conducting kinetic experiments the K, was at least five fold higher than the minimum concentration of substrate and fivefold lower than the maximum concentration of substrate tested.

[2] = biological target: T2, CYP96T1 (Narcissus aff. pseudonarcissus MK-2014, UniProt A0A140IL90); type: biochemical; details: for product formation as CYP96T1 substrate: LC-MS/MS
T2 construct: made in house; host or cells: Spodoptera frugiperda Sf9 cells (Baculogold baculovirus, pVL1392)
T2 sequence (A0A140IL90 1-513): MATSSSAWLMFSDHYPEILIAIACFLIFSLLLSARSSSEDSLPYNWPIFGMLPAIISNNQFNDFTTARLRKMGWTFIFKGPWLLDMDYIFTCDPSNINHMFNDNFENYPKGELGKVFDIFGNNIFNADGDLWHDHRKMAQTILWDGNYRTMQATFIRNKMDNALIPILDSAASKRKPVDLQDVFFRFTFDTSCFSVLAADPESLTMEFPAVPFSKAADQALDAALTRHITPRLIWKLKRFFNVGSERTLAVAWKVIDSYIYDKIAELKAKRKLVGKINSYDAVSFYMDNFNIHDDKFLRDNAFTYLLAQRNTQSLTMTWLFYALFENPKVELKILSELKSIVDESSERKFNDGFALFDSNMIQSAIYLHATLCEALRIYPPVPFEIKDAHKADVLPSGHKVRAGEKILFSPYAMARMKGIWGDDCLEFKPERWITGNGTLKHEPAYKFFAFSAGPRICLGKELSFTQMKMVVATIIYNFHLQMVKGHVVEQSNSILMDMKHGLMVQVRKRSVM
Procedure: Recombinant protein production of NpN4OMT and norbelladine synthase/reductase in 1 L of E. coli and purification with TALON resin followed standard methods. No proteases were added to the protein extract, and desalting was performed with PD-10 columns from GE Healthcare. Protein quantity was determined according to Bradford; purity was monitored by SDS-PAGE. The E. coli cell line containing the hexahistidine-tagged methylthioadenosine/S-adenosylhomocysteine nucleosidase (Pfs) construct from Choi-Rhee and Cronan's work was used to purify Pfs protein. CYP96T1 was co-expressed with cytochrome P450 reductase in Spodoptera frugiperda Sf9 cells using Baculogold baculoviurus (BD Biosciences). Whole cell lysates were used in CYP96T1 enzyme assays.
CYP96T1 assays contained 30 mM KPO4 pH 8.0, 1.25 mM NADPH, 10 μM substrate and 70 μl of virus infected Sf9 cell suspension in 200 μl total volume. The assays were incubated for 2-4 hr at 30° C. 4′-O-metylnorbelladine was used as an initial test compound. Substrate specificity tests were done on 4′-O-methyl-N-methylnorbelladine, norbelladine, N-methylnorbelladine, 3′-O-methylnorbelladine, 3′,4′-O-dimethylnorbelladine, haemanthamine, (S)-coclaurine, (R)-coclaurine and mixed (10aR,4bR)- and (10aS,4bS)-noroxomaritidine. Assays derivatized with sodium borohydride were incubated 2 hr at 30° C. followed by addition of 0.5 volumes 0.5 M sodium borohydride in 0.5 M sodium hydroxide and incubated 30 min at RT. The CYP96T1 assay resolved on a Chiral-CBH column and assays measured with HPLC used fresh CYP96T1 and CPR expressing SF9 cell protein prepared using re-amplified virus. Enzyme assays on all substrates were extracted as previously described and run on a QTRAP 4000 coupled to a IL-20AC XR prominence liquid auto sampler, 20AD XR prominence liquid chromatograph and Phenomenex Luna 5 μm C8(2) 250×4.60 mm column. HPLC gradient and MS settings were as previously described for NpN4OMT. Assay specific MS/MS parameters are presented in
Table 4. Multiple Reaction Monitoring (MRM) parameters for relative quantification of (10aR,4bR)- and (10aS,4bS)-noroxomaritidine, N-demethylnarwedine, narwedine and the two unknown compounds are presented in Table5. For analysis of product chirality, a Chrom Tech, Inc. Chiral-CBH 100×4.0 mm, 5 μM column was used with a 30 min isocratic flow of 2.5% HPLC grade ethanol and 10 mM ammonium acetate with pH adjusted to 7.0 with ammonium hydroxide.

T1 sequence (A0A077EWA5 whole entry): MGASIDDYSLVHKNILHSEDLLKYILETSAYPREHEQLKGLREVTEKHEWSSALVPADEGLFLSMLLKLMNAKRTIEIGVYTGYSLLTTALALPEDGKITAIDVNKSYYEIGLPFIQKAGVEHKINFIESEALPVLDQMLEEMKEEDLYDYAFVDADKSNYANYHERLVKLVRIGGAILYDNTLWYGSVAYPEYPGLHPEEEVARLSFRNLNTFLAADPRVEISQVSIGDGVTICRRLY

Structure (SMILES): O=Cc1ccc(O)c(O)c1 [3,4-dihydroxybenzaldehyde]
- product formation / activity as NpN4OMT substrate ([1]; text statement): Products were not detected; also recorded: lack of enzymatic activity

Structure (SMILES): COc1ccc(CNCCc2ccc(O)cc2)cc1OC [3′,4′-O-Dimethylnorbelladine]
- product formation as CYP96T1 substrate [2]: products were not detected

Structure (SMILES): COc1cc(CNCCc2ccc(O)cc2)ccc1O [3′-O-Methylnorbelladine]
- product formation as CYP96T1 substrate [2]: products were not detected

Structure (SMILES): COc1ccc(CN(C)CCc2ccc(O)cc2)cc1O [4′-O-Methyl-N-methylnorbelladine]
- product formation as CYP96T1 substrate [2]: One product is enzymatically produced

Structure (SMILES): COc1ccc(CNCCc2ccc(O)cc2)cc1O [4′-O-Methylnorbelladine]
- product formation as CYP96T1 substrate [2]: C—C phenol coupled
- kcat ([2]; substrate of CYP96T1): 0.25 ± 0.0338 s⁻¹
- kcat ([2]; substrate of CYP96T1, production of noroxomaritidine): 15.0 ± 2.03 L/min
- Km ([2]; substrate of CYP96T1, production of (10aR,4bR)- and (10aS,4bS)-noroxomaritidine, Michaelis-Menten with substrate inhibition): 1.13 ± 0.5 µM

Structure (SMILES): COc1cc2c(cc1O)[C@@H](Cc1ccc(O)cc1)NCC2 [(R)-Coclaurine]
- product formation as CYP96T1 substrate [2]: yield products with a mass −2 m/z

Structure (SMILES): COc1cc2c(cc1O)[C@H](Cc1ccc(O)cc1)NCC2 [(S)-Coclaurine]
- product formation as CYP96T1 substrate [2]: yield products with a mass −2 m/z

Structure (SMILES): CN(CCc1ccc(O)cc1)Cc1ccc(O)c(O)c1 [N-methylnorbelladine]
- product formation as CYP96T1 substrate [2]: Product formation is not observed

Structure (SMILES): O=C(O)/C=C/c1ccc(O)c(O)c1 [caffeic acid]
- product formation / activity as NpN4OMT substrate [1]: Products were not detected

Structure (SMILES): [Co+2] [cobalt]
- enzymatic activity upon addition of divalent cation [1]: enzymatic activity improved

Structure (SMILES): NCCc1ccc(O)c(O)c1 [dopamine]
- product formation / activity as NpN4OMT substrate [1]: served as a substrate, but with less efficiency
- kcat ([1]; substrate of NpN4OMT1, ± = Standard error, ND = Not detected): 0.06 ± 0.0025 s⁻¹
- Km ([1]; substrate of NpN4OMT1, ± = Standard error, ND = Not detected, AdoMet determined with norbelladine as the saturated substrate): 7.3 ± 2.7 µM

Structure (SMILES): [Mg+2] [magnesium]
- enzymatic activity upon addition of divalent cation [1]: increased fourfold more

Structure (SMILES): Oc1ccc(CCNCc2ccc(O)c(O)c2)cc1 [norbelladine]
- product formation as CYP96T1 substrate [2]: Product formation is not observed

Structure (SMILES): NCCc1ccc(O)cc1 [tyramine]
- product formation / activity as NpN4OMT substrate ([1]; text statement): Products were not detected
- product formation / activity as NpN4OMT substrate ([1]; text statement, listed as Tyramine): not methylated

Structure (SMILES): COc1cc(C=O)ccc1O [vanillin]
- product formation / activity as NpN4OMT substrate ([1]; text statement): Products were not detected

Reference: patent US20190300892A1, “CONSTRUCTS AND METHODS FOR BIOSYNTHESIS OF GALANTHAMINE” (priority 2014, published 2019)
